The numbers were not newly measured in patent US20250275939A1, “CO-CRYSTALS” (UNIVERSITY OF IOWA RESEARCH FOUNDATION, priority 2024, published 2025), which cites them from elsewhere.

For series [1] the following is noted: in vivo.
The conditions of series [2]: in vivo. The source holds these as a separate data set.
For series [3] the following is noted: humans, adults and children.
The conditions of series [4]: humans, after a single oral dose.

Read-outs that look alike come from different tables or passages of the source. Peptide text beside a SMILES is read from it.

As for `C1N2CN3CN1CN(C2)C3` [Methenamine], in series [1], the “serum enzyme elevations / clinically apparent acute liver injury” value is given as “has not been linked to serum enzyme elevations or to instances of clinically apparent acute liver injury”.

Take `Cc1nc(C)c(C)nc1C` [TMP, tetramethyl pyrazine]: the “penetration of the blood-brain barrier” value in series [2] is reported as “can penetrate the blood-brain barrier”. For `COC(=O)[C@H](Cc1ccccc1)NC(=O)[C@@H](N)CC(=O)O` [aspartame, Aspartame] (H-Asp-Phe-OMe), the acceptable daily intake is reported as 40 mg/kg bodyweight in series [3] (Europe) and 50 mg/kg bodyweight in series [3] (United States). For `O=c1c(O)c(-c2ccc(O)c(O)c2)oc2cc(O)cc(O)c12` [quercetin, Quercetin], in series [4], the oral bioavailability is about 2%.
